Measurements reported in patent US11414378B2, “Anti-fungals compounds targeting the synthesis of fungal sphingolipids” (THE RESEARCH FOUNDATION FOR THE STATE UNIVERSITY OF NEW YORK, priority 2017, dated 2022).
Converted amounts (≈) assume the structure as drawn. Values belong to the molecule of their own block, whether it stands above or below them.

Experiments:
[1] = system: C. neoformans; experiment: In vitro susceptibility (MIC80) assay; assay type: cell-based; settings: Cryptococcus neoformans; lowest concentration that inhibited 80% of growth; YNB pH 7.0, HEPES, 37° C., 5% CO2
Description: MICs was determined following the methods of the Clinical and Laboratory Standards Institutes (CLSI) with modifications. Yeast Nitrogen Base (YNB) medium (pH 7.0, 0.2% glucose) buffered with HEPES was used for MIC studies. […] The compound was serially diluted from 16 to 0.03 μg/ml, in a 96-well plate. The inoculum was prepared as described in the CLSI protocol M27A3 guidelines. The plates were incubated at 37° C. with 5% CO2 for 24 to 72 h and the optical density was measure at 450 nm. The MICs was determined as the lowest concentration of the compound that inhibited 80% of growth compared to the control.

[2] = system: C. neoformans; experiment: In vivo efficacy evaluation (survival study) in an animal model; set-up: species or system CBA/J mice; settings: 20 mg/kg/day orally (gavage); mice infected intranasally with 5×10^5 C. neoformans cells
Description: For survival study, 4-week old CBA/J (Envigo) male mice were used. They were divided as ten mice for each treatment or control group. Mice were infected intranasally with 20 μl of a suspension containing 5×10^5 C. neoformans cells and subsequently treated orally with 20 mg/kg/day of compound A15 and fluconazole as drug control in a final volume of 100 μl of PEG30% in a saline buffer. The untreated control group mice received 100 μl of PEG30% in a saline buffer. Gavage was used as route of administration. At the end of the experiment, 80% of the mice treated with compound A15 survived whereas, only 30% of the mice treated with fluconazole survived. Mice were fed ad libitum and monitored every day for discomfort and meningitis signs. Mice showing weight loss, lethargy, tremor or inability to reach food or water were sacrificed and survival was counted until that day (see FIG. 2).

[3] = system: C. neoformans cells; experiment: In vitro killing activity (K100) assay; assay type: cell-based, Cryptococcus neoformans; settings: Cryptococcus neoformans; minimum concentration that kills 100% of C. neoformans cells in 48 h
Description: C. neoformans cells from a culture grown overnight were washed in PBS and resuspended in YNB buffered with HEPES at pH 7.4. The cells were counted, and 2×10^4 cells were incubated with different concentration of compounds in a final volume of 10 ml with a final concentration of 0.5% DMSO. The tubes were then incubated at 37° C. with 5% CO2 on a rotary shaker at 200 rpm. Aliquots were taken at time points and diluted, and […] were plated onto Yeast Extract-Peptone-Dextrose (YPD) plates. YPD plates were incubated in a 30° C. incubator and after 48 h, the numbers of CFU were counted and recorded.

[4] = system: A549; experiment: A549 toxicity; assay type: cell-based; settings: Tables 1-3
[5] = system: C. neoformans; experiment: In vitro killing assay (killing curve, Kapp, 48H killing); assay type: cell-based, Cryptococcus neoformans; settings: 48H
Description: From an overnight culture, C. neoformans cells were washed in PBS, resuspended in YNB buffered with HEPES at pH 7.4. Cells were counted and 2×10^4 cells were incubated with either 1, 2 or 4 μg/ml of compound in a final volume of 10 ml. Tubes were then incubated at 37° C. in the presence of 5% CO2 on a rotary shaker at 200 rpm. At the illustrated time points, aliquots were taken and diluted and 100 μL was plated onto yeast peptone dextrose (YPD) plates. YPD plates were incubated in a 30° C. incubator and, after 72 hours, colony forming units (CFU) were counted and recorded.

[6] = system: C. neoformans; experiment: In vitro susceptibility testing (MIC / IC80); assay type: cell-based, Cryptococcus neoformans; settings: Cryptococcus neoformans; Tables 1-3
Description: Minimal inhibitory concentration (MIC) was determined following the methods of the Clinical Laboratory Standards Institutes (CLSI) with modifications. MIC studies used either RPMI or YNB medium (pH 7.0, 0.2% glucose) buffered with HEPES. […] The compound was serially diluted from 32 to 0.03 μg/ml or 19 to 0.02 μg/ml respectively in a 96 well plate with the respective medium. The yeast inoculum was prepared as described in the CLSI protocol M27-A3 guidelines. Plates were incubated at 37° C. and in the presence of 5% CO2 for 24-96 hours. Against all fungal isolates used in the initial susceptibility screen, the MICs were determined as the lowest concentration of the drug that inhibited 50% of growth compared to the control. MIC80 and MIC100, whose drug concentrations inhibited 80% and 100% growth compared to the control respectively, were also determined. For antibacterial activity, E. coli DH5a and P. aeruginosa PA14 were grown overnight in Luria Bertani (LB) broth at 30° C. The cells were washed with PBS and counted. Then, 300 μL from 2×10^8 cells/mL was spreaded onto LB agar plate using a hockey stick glass spreader. The plate was dried, and wells were punched out using a cut tip. Fifty microliters of different drug concentration was added to the well. The plate was then incubated at 30° C. for 24 hours.

[7] = system: HepG2; experiment: HepG2 toxicity; assay type: cell-based; settings: Tables 1-3

Structure (SMILES): COCc1ccc(C(=O)N/N=C/c2cc(Br)cc(Br)c2O)cc1 [Compound A15, 4-Methoxymethyl-N′-(3,5-dibromo-2-hydroxybenzylidene)benzohydrazide]
- MIC80 [1]: 0.007 µg/mL (≈ 0.0158 µM)
- mice survived at the end of the experiment [2]: 80%
- MFC [3]: 0.03 µg/mL (≈ 0.0679 µM)

- MIC80 [1]: 0.06 µg/mL (≈ 0.137 µM)
- melting point: 193 to 197 °C
Structure (SMILES): [N-]=[N+]=Nc1ccc(C(=O)N/N=C/c2cc(Br)cc(Br)c2O)cc1 [Compound A45, 4-Azido-N′-(3,5-dibromo-2-hydroxybenzylidene)benzohydrazide]

Structure (SMILES): OC(Cn1cncn1)(Cn1cncn1)c1ccc(F)cc1F [fluconazole, reference compound]
- mice survived at the end of the experiment [2]: 30%

Structure (SMILES): O=C(N/N=C/c1ccc(Br)cc1O)c1cc(Br)cc(Br)c1O [drawing 79]
- A549 [4]: 32 µg/mL
- Killing assay 48H (μg/mL) [5]: Fungistatic
- IC80 [6]: 0.06 µg/mL (≈ 0.122 µM)
- HepG2 [7]: 32 µg/mL
